# Laboratory results from patent publication US8956868B2, “Induced pluripotent stem cells produced with a connexin inhibitor and a TGF-β signaling inhibitor” (LSIP, LLC, priority 2010, dated 2015).
# Test system: cardiomyocytes derived from neonatal mouse ventricles
# Experiment: Reprogramming of cardiomyocytes into iPS cells (selective culture in mouse ES medium)
# Assay type: cell-based
# Details: ES medium containing both 10 μM SB-431542 and 100 nM siRNA Cx43 (combination); after about two weeks; cardiomyocytes seeded at 2×10^5 cells
# Procedure: Two-day-old neonatal C57BL/6 or C57BL/6-Tg (CAG-EGFP) mouse hearts including ventricles were minced into approximately 2-mm cubes with dissecting scissors by a conventional method. They were treated with 0.2% collagenase (type II; Worthington Biochemical Corp. U.S.; dissolved in PBS) to dissociate cardiomyocytes. The dissociated cardiomyocytes were centrifuged, and incubated for 45 minutes in DMEM containing 10% FBS at 37° C. with 5% CO2. After the incubation, the supernatant was further incubated under the same conditions. This process was repeated four times. Thus, fibroblasts were removed, and the cardiomyocytes were isolated,
# The cardiomyocytes were seeded at 2×10^5 cells in a 6-cm dish, and cultured in the above DMEM medium. After culturing for 1 week, the medium used for culturing the cardiomyocytes was switched from the above DMEM medium to mouse ES media containing 15% FBS and also containing either a TGF-β receptor inhibitor SB-431542 (10 μM; Tocris, USA), siRNA Cx43 (100 nM), or both compounds, to select the reprogrammed cells. […]
row,Compound,iPS cell colonies obtained
1,NC(=O)c1ccc(-c2nc(-c3ccc4c(c3)OCO4)c(-c3ccccn3)[nH]2)cc1 [SB-431542],Two
2,"siRNA Cx43: mouse Cx43 siRNA; sense 5′-CAAUUCCUCCUGCCGCAATT-3′, antisense 5′-UUGCGGCAGGAGGAAUUGTT-3′ (sense CAAUUCCUCCUGCCGCAATT; antisense UUGCGGCAGGAGGAAUUGTT; chemistry not given here)",Two
